Assay results from US10144706B2 (BRISTOL-MYERS SQUIBB COMPANY, priority 2016, dated 2018).

target: T1, PD-1/PD-L1 interaction (PD-1-Ig / PD-L1-His) (Homo sapiens, UniProt Q9NZQ7); test: PD-1/PD-L1 Homogenous Time-Resolved Fluorescence (HTRF) binding assay; conditions: IC50 range class; PD-L1-His 10 nM, PD-1-Ig 20 nM; read-out: Range or IC50
T1 construct: hPDL1(18-239)-TVMV-His; TVMV protease site linker (C); made in house; host or cells: HEK293T
In short: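 HTRF detection used 1 nM europium-cryptate anti-Ig and 20 nM APC anti-His. Compounds first saw 10 nM PD-L1-His for 15 min, and 20 nM PD-1-Ig was then added for another 15 min. Buffer was dPBS plus 0.1% BSA and 0.05% Tween-20. All concentrations are final.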

T1 sequence (Q9NZQ7 with tags, fused parts or gaps): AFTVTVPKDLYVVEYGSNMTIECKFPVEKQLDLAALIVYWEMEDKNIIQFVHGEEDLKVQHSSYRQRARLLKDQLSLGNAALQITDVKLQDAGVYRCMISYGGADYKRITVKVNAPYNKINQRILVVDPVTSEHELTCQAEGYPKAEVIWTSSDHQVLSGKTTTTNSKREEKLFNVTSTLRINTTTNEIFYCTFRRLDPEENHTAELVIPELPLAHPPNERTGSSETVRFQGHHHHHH

Compound | IC50
Cc1c(COc2cc(OCc3cncc(C#N)c3)c(CNC(C(=O)O)C(C)O)cc2Cl)cccc1-c1cccc(COc2cc(OCc3cncc(C#N)c3)c(CNC(C(=O)O)C(C)O)cc2Cl)c1C (centres unmarked) [Example 40100] | 0.04 to 20 nM
Cc1c(COc2cc(OCc3cncc(C#N)c3)c(CN[C@H](C(=O)O)[C@H](C)O)cc2Cl)cccc1-c1cccc(COc2cc(OCc3cncc(C#N)c3)c(CN[C@H](C(=O)O)[C@H](C)O)cc2Cl)c1C [Example 41110] | 0.04 to 20 nM
Cc1c(OCCCCCN2CC[C@@H](O)C2)cccc1-c1cccc(OCCCN2CC[C@@H](O)C2)c1C [Example 3003, (R)-1-(3-((3′-((5-((R)-3-hydroxypyrrolidin-1-yl)pentyl)oxy)-2,2′-dimethyl-[1,1′-biphenyl]-3-yl)oxy)propyl)pyrrolidin-3-ol] | 0.04 to 20 nM
Cc1c(COc2cc(OCc3cncc(C#N)c3)c(CN3C[C@@H](C)C[C@H]3C(=O)O)cc2Cl)cccc1-c1cccc(COc2cc(OCc3cncc(C#N)c3)c(CN3C[C@@H](C)C[C@H]3C(=O)O)cc2Cl)c1C [Example 40430] | 0.04 to 20 nM
Cc1c(COc2cc(OCc3cncc(C#N)c3)c(CNC(CCO)C(=O)O)cc2Cl)cccc1-c1cccc(COc2cc(OCc3cncc(C#N)c3)c(CNC(CCO)C(=O)O)cc2Cl)c1C (centres unmarked) [Example 40270] | 0.04 to 20 nM
Cc1cc(OCCCN2CC[C@@H](O)C2)ccc1-c1cccc(OCCCCN2CC[C@@H](O)C2)c1C [Example 3004, (R)-1-(3-((3′-(4-((R)-3-hydroxypyrrolidin-1-yl)butoxy)-2,2′-dimethyl-[1,1′-biphenyl]-4-yl)oxy)propyl) pyrrolidin-3-ol] | 1000 to 10000 nM
Cc1c(OCCCN(C)CCO)cccc1-c1cccc(OCCCN2CC[C@@H](O)C2)c1C [Example 2034, (R)-1-(3-((3′-(3-((2-hydroxyethyl)(methyl)amino)propoxy)-2,2′-dimethyl-[1,1′-biphenyl]-3-yl)oxy)propyl)pyrrolidin-3-ol] | 20.1 to 90 nM
Cc1cc(OCc2cccc(-c3cccc(COc4cc(C)c(CN5CCCC[C@H]5C(=O)O)cc4Cl)c3C)c2C)c(Cl)cc1CN1CCCC[C@H]1C(=O)O [Example 5501, (2S,2′S)-1,1′-(((((2,2′-dimethyl-[1,1′-biphenyl]-3,3′-diyl)bis(methylene))bis(oxy))bis(5-chloro-2-methyl-4,1-phenylene))bis(methylene))bis(piperidine-2-carboxylic acid)] | 0.04 to 20 nM
Cc1c(OCCCN(C)CCOCCN(C)CCCOc2cccc(-c3cccc(OCCCN4CC[C@@H](O)C4)c3C)c2C)cccc1-c1cccc(OCCCN2CC[C@@H](O)C2)c1C [Example 2095, (3R,3′R)-1,1′-(((((((oxybis(ethane-2,1-diyl))bis(methylazanediyl))bis(propane-3,1-diyl))bis(oxy))bis(2,2′-dimethyl-[1,1′-biphenyl]-3′,3-diyl))bis(oxy))bis(propane-3,1-diyl))bis(pyrrolidin-3-ol)] | 20.1 to 90 nM
Cc1c(COc2cc(OCc3cncc(C#N)c3)c(CNC(CC(=O)O)c3ccc(F)cc3)cc2Cl)cccc1-c1cccc(COc2cc(OCc3cncc(C#N)c3)c(CNC(CC(=O)O)c3ccc(F)cc3)cc2Cl)c1C (centres unmarked) [Example 40390] | 20.1 to 90 nM
Cc1c(OCCCN2CC[C@@H](O)C2)cccc1-c1cccc(OCCCN2CC[C@H](CO)[C@H](O)C2)c1C [Example 2033, (3S,4R)-4-(hydroxymethyl)-1-(3-((3′-(3-((R)-3-hydroxypyrrolidin-1-yl)propoxy)-2,2′-dimethyl-[1,1′-biphenyl]-3-yl)oxy)propyl)piperidin-3-ol] | 0.04 to 20 nM
Cc1c(OCCCNCCCO)cccc1-c1cccc(OCCCNC[C@H](O)CO)c1C [Example 2080, (S)-3-((3-((3′-(3-((3-hydroxypropyl)amino)propoxy)-2,2′-dimethyl-[1,1′-biphenyl]-3-yl)oxy)propyl)amino)propane-1,2-diol] | 0.04 to 20 nM
Cc1c(OCCCN2CC[C@@H](O)C2)cccc1-c1cccc(OCCCN2CCCCC2CO)c1C (mixture of isomers) [Example 2025, (3R)-1-(3-((3′-(3-(2-(hydroxymethyl)piperidin-1-yl)propoxy)-2,2′-dimethyl-[1,1′-biphenyl]-3-yl)oxy)propyl)pyrrolidin-3-ol] | 20.1 to 90 nM
Cc1c(OCCCN2CCC(CO)CC2)cccc1-c1cccc(OCCCN2CC[C@@H](O)C2)c1C [Example 2106, (R)-1-(3-((3′-(3-(4-(hydroxymethyl)piperidin-1-yl)propoxy)-2,2′-dimethyl-[1,1′-biphenyl]-3-yl)oxy)propyl)pyrrolidin-3-ol] | 20.1 to 90 nM

Further lines, results first:

IC50 | Compound
20.1 to 90 nM | Cc1c(COc2cc(OCc3cncc(C#N)c3)c(Cl)cc2Cl)cccc1-c1cccc(COc2cc(OCc3cncc(C#N)c3)c(CN[C@@](C)(CO)C(=O)O)cc2Cl)c1C [Example 70060]
20.1 to 90 nM | Cc1c(COc2cc(OCc3cncc(C#N)c3)c(CN[C@@H](Cc3cnc[nH]3)C(N)=O)cc2Cl)cccc1-c1cccc(COc2cc(OCc3cncc(C#N)c3)c(CN[C@@H](Cc3cnc[nH]3)C(N)=O)cc2Cl)c1C [Example 40620]
90.1 to 1000 nM | Cc1c(OCCCN[C@@H](CO)Cc2ncn(C)c2Cl)cccc1-c1cccc(OCCCN2CC[C@@H](O)C2)c1C [Example 2071, (R)-1-(3-((3′-(3-(((R)-1-(5-chloro-1-methyl-1H-imidazol-4-yl)-3-hydroxypropan-2-yl)amino)propoxy)-2,2′-dimethyl-[1,1′-biphenyl]-3-yl)oxy)propyl)pyrrolidin-3-ol]
> 10000 nM | Cc1ccccc1-c1ccc(OCCCN2CC[C@H](O)C2)c(OCCCN2CC[C@H](O)C2)c1 [Example 3021, (3S,3′S)-1,1′-(((2′-methyl-[1,1′-biphenyl]-3,4-diyl)bis(oxy))bis(propane-3,1-diyl))bis(pyrrolidin-3-ol)]
1000 to 10000 nM | Cc1c(OCCCN2CC[C@@H](O)C2)cccc1-c1cccc(C(=O)NCCCCN2CC[C@@H](O)C2)c1C [Example 3008, N-(4-((R)-3-hydroxypyrrolidin-1-yl)butyl)-3′-(3-((R)-3-hydroxypyrrolidin-1-yl)propoxy)-2,2′-dimethyl-[1,1′-biphenyl]-3-carboxamide]
0.04 to 20 nM | Cc1c(OCCCNC[C@H](O)CO)cccc1-c1cccc(OCCCN[C@H](CO)[C@H](O)c2ccccc2)c1C [Example 2098, (S)-3-((3-((3′-(3-(((1R,2R)-1,3-dihydroxy-1-phenylpropan-2-yl)amino)propoxy)-2,2′-dimethyl-[1,1′-biphenyl]-3-yl)oxy)propyl)amino)propane-1,2-diol]
0.04 to 20 nM | Cc1c(COc2cc(OCc3cncc(C#N)c3)c(CN[C@@H](CO)C(=O)O)cc2Cl)cccc1-c1cccc(COc2cc(OCc3cncc(C#N)c3)c(CN[C@H](CO)C(=O)O)cc2Cl)c1C [Example 40260]
0.04 to 20 nM | Cc1c(COc2cc(OCc3cncc(C#N)c3)c(CNC3CCC[C@@H]3C(=O)O)cc2Cl)cccc1-c1cccc(COc2cc(OCc3cncc(C#N)c3)c(CN[C@@H]3CCC[C@@H]3C(=O)O)cc2Cl)c1C (some centres unmarked) [Example 40510]
0.04 to 20 nM | N#Cc1cncc(COc2cc(OCc3cccc(-c4cccc(COc5cc(OCc6cncc(C#N)c6)c(C(=O)N6CCC(O)CC6)cc5Cl)c4Cl)c3Cl)c(Cl)cc2C(=O)N2CCC(O)CC2)c1 [Example 80060]
20.1 to 90 nM | Cc1c(OCCCNCCn2cc(Cl)cn2)cccc1-c1cccc(OCCCN2CC[C@@H](O)C2)c1C [Example 2060, (R)-1-(3-((3′-(3-((2-(4-chloro-1H-pyrazol-1-yl)ethyl)amino)propoxy)-2,2′-dimethyl-[1,1′-biphenyl]-3-yl)oxy)propyl)pyrrolidin-3-ol]
0.04 to 20 nM | Cc1c(OCCCN(C)CCCO)cccc1-c1cccc(OCCCN(C)CCCO)c1C [Example 2030, 3,3′-((((2,2′-dimethyl-[1,1′-biphenyl]-3,3′-diyl)bis(oxy))bis(propane-3,1-diyl))bis(methylazanediyl))bis(propan-1-ol)]
0.04 to 20 nM | CC(=O)c1cc(Cl)c(OCc2cccc(-c3cccc(COc4cc(OCc5cncc(C#N)c5)c(CN[C@@](C)(CO)C(=O)O)cc4Cl)c3C)c2C)cc1OCc1cncc(C#N)c1 [Example 60070]
0.04 to 20 nM | Cc1c(COc2cc(OCc3cncc(C#N)c3)c(CN[C@H](C(=O)O)[C@@H](C)OC(C)(C)C)cc2Cl)cccc1-c1cccc(COc2cc(OCc3cncc(C#N)c3)c(CN[C@H](C(=O)O)[C@@H](C)OC(C)(C)C)cc2Cl)c1C [Example 40930]
20.1 to 90 nM | CC(=O)c1cc(Cl)c(OCc2cccc(-c3cccc(COc4cc(OCc5cncc(C#N)c5)c(CN[C@@H](C(=O)O)[C@H](C)O)cc4Cl)c3C)c2C)cc1OCc1cncc(C#N)c1 [Example 60090]
20.1 to 90 nM | Cc1c(COc2cc(OCc3cc(F)cc(F)c3)c(CN(C)[C@@H](CO)C(=O)O)cc2Cl)cccc1-c1cccc(COc2cc(OCc3cc(F)cc(F)c3)c(CN(C)[C@@H](CO)C(=O)O)cc2Cl)c1C [Example 5013, (2S,2′S)-2,2′-((((((2,2′-dimethyl-[1,1′-biphenyl]-3,3′-diyl)bis(methylene))bis(oxy))bis(5-chloro-2-((3,5-difluorobenzyl)oxy)-4,1-phenylene))bis(methylene))bis(methylazanediyl))bis(3-hydroxypropanoic acid)]
0.04 to 20 nM | Cc1c(COc2cc(OCc3cncc(C#N)c3)c(CNC(CCO)C(=O)O)cc2Cl)cccc1-c1cccc(COc2cc(OCc3cncc(C#N)c3)c(CN(CC3CC3)C(CCO)C(=O)O)cc2Cl)c1C (centres unmarked) [Example 40840]
90.1 to 1000 nM | Cc1c(OCCCN[C@@H](Cc2ccncc2)C(=O)O)cccc1-c1cccc(OCCCN2CC[C@@H](O)C2)c1C [Example 2037, (S)-2-((3-((3′-(3-((R)-3-hydroxypyrrolidin-1-yl)propoxy)-2,2′-dimethyl-[1,1′-biphenyl]-3-yl)oxy)propyl)amino)-3-(pyridin-4-yl)propanoic acid]
90.1 to 1000 nM | Cc1c(OCCCN2CCN(CC(=O)NC(C)C)CC2)cccc1-c1cccc(OCCCN2CC[C@@H](O)C2)c1C [Example 2109, (R)-2-(4-(3-((3′-(3-(3-hydroxypyrrolidin-1-yl)propoxy)-2,2′-dimethyl-[1,1′-biphenyl]-3-yl)oxy)propyl)piperazin-1-yl)-N-isopropylacetamide]
